Entries after “also recorded” stand apart in the source; their conditions may differ. Values belong to the molecule of their own block, whether it stands above or below them.
Experiments:
HEK-Blue™ IL4/IL13 cells = assay: Human embryonic kidney 293 IL4 reporter cell assay (Example 2); format: cell-based; settings: IL4Rα/STAT6-inducible reporter
Description: This cell line has a fully active STAT6 pathway and carries a STAT6-inducible SEAP reporter gene. […] The levels of secreted SEAP can be determined with QUANTI-Blue™ (Invivogen). 180 μL DMEM with 10% FBS and 1% Pen-Strep containing […] was added per well in a 96-well-plate. Subsequently, 20 μL stimulus or vehicle was added and cells were incubated for 20-24 hours at 37° C. Subsequently, 180 μL QUANTI-Blue was added per well to a separate 96-well-plate (flat-bottom) and 20 μL of the cell supernatant was added. The plate was incubated for 1-3 hours at 37° C. and absorbance at 640 nm was measured on a Tecan Spark plate reader to determine SEAP levels.

CD8 receptor = target: T1, CD8 receptor (Mus musculus, UniProt P01731+P10300); assay: In vitro binding of VHHCD8-apoA1 in mice splenocytes; format: cell-based; settings: 30 minutes at 4° C.
T1 construct: Spleens were obtained from mice, cut into pieces, and strained through a 70 μm strainer; from tissue; host or cells: mouse spleen (freshly isolated splenocytes)
Description: In vitro binding of VHHCD8-apoA1 in mice splenocytes: Spleens were obtained from mice, cut into pieces, and strained through a 70 μm strainer (Corning) multiple times to obtain a splenocyte suspension. Cells were spun down at 1500 rpm for 10 minutes, the supernatant was removed and the cells were dissolved in 2 mL 1× red blood cell lysis buffer (Thermofisher). Suspension was incubated at room temperature for 5 minutes, 10 mL Roswell Park Memorial Institute (RPMI) medium (Thermofisher) was added, and cells were again spun down at 1500 rpm for 10 minutes. Cells were then redissolved in RPMI medium and plated in a 96 wells plate at 150.000 cells/well.
The proteins were labeled by adding sulfo-cyanine5-maleimide (Lumiprobe) in dimethyl sulfoxide (DMSO) at a 5× molar excess. This mixture was incubated at room temperature for 2 hours. Excess dye was removed using a PD minitrap G-25 desalting column (Cytiva). Fluorescently labeled aNPs were formulated by adding 6.4 μg Dil for discoidal formulations and 21 μg Dil for spherical formulations (see section “formulating nanoparticles” of Example 2). […] (for aNPs) after which cells were harvested, washed, and stained for CD3 and CD4 and measured on Cytoflex (Beckman Coulter Inc.). Flow cytometry data was analyzed using FlowJo software (BD).

[1] = target: T2, IL4 receptor in human monocytes (Homo sapiens, UniProt P24394); assay: Super-resolution fluorescence microscopy (dSTORM) of interactions with IL4 receptor; format: cell-based
T2 construct: Human monocytes were isolated from a healthy donor's peripheral blood as described above; endogenous in cells; host or cells: primary human monocytes from a healthy donor's peripheral blood
T2 sequence (P24394 26-825): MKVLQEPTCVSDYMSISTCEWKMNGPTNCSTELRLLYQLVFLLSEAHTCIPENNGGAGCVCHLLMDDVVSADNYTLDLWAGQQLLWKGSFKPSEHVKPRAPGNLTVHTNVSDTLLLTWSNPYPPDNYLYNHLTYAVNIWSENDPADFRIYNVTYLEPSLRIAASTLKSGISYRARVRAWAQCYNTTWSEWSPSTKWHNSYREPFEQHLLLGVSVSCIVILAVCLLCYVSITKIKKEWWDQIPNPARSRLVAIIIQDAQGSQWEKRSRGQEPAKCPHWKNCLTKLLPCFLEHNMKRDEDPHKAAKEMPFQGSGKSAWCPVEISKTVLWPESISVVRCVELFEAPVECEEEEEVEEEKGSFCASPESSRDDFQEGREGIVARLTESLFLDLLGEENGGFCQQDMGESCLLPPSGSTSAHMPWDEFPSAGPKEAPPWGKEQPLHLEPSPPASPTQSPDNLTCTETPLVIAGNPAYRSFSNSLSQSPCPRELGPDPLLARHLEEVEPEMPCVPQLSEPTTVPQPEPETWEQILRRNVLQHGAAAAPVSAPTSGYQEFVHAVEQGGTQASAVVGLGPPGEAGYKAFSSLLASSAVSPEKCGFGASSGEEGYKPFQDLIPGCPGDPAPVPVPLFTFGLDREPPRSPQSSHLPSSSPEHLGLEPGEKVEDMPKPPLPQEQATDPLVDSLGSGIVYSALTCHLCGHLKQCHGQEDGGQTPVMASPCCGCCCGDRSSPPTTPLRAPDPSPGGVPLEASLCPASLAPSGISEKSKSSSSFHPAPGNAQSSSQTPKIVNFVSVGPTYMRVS
Description: 100,000 monocytes were seeded per well on a cell culture-treated chambered coverslip (μ-Slide 8-well, IBID). After 2 hours of incubation at 37° C. […] Subsequently, the cells were washed with PBS and fixed with 4% PFA for 20 minutes. […] The stained cells were stored in PBS at 4° C. For the direct stochastic optical reconstruction microscopy (dSTORM), the cells were immersed in GLOXY imaging buffer (40 μg/ml catalase, 0.5 mg/ml glucose oxidase, 5% glucose and 0.01 M cysteamine in PBS, pH 8.0) for a few minutes before and during the imaging. The acquisition was performed in Total Internal Reflection Fluorescence (TIRF) mode, using ONI Nanoimager (ONI, Oxford, UK). It is equipped with a 100×/1.4NA oil immersion objective, a sCMOS camera, and, in this study, 488 nm (200 mW) and 640 nm (1000 mW) lasers were used. 10000 frames were acquired with a 10 ms exposure time with the field of view of 50×80 μm. Raw data were processed using the ThunderSTORM software, yielding images with a spatial resolution of 10 nm.

primary human monocytes [2] = assay: In vitro inflammation inhibition, LPS-stimulated monocytes; format: cell-based; settings: 1 hour pre-incubation with inhibitor (Table 2), IL4 + LPS 24 h
Description: (§1) For pharmacological inhibition experiments, the monocytes were pre-incubated for 1 hour with one of the inhibitors described in Table 2 before addition of the training stimulus.
In vitro inflammation inhibition: Monocytes were adhered to a flat-bottom cell culture plate for 1 hour and washed with warm PBS to remove any non-adherent cells and cell debris. […] Following the initial 24-hour stimulation, the supernatants were collected and stored at −20° C. until further analysis with ELISA for IL6 and TNF.
(§2) Cytokine and lactate measurements: TNF, IL6, and IL1Ra were measured in cell culture supernatants using duoset ELISA kits (R&D systems), according to the manufacturer's instructions. For lactate measurements, a fluorometric assay was used. 30 μl sample, medium control, or known standard was added to a black 96-well plate. Then, 30 μl reaction mix (PBS pH 7.4, horse radish peroxidase (0.2 U/ml), lactate oxidase (2 U/ml), Amplex red (100 μM; Fisher scientific)) was added and the reaction was incubated for 20 minutes in the dark at RT. Immediately thereafter, fluorescence was measured at 530/25 nm and 590/35 nm. Gen5 software (v3.03, BioTek) was used in conjunction with Microsoft Excel to calculate cytokine and lactate concentrations in the original samples.

primary human monocytes [3] = assay: In vitro model of trained immunity in primary human monocytes; format: cell-based; settings: 1 hour pre-incubation with inhibitor (Table 2) before IL4 training
Text: In vitro model of trained immunity in primary human monocytes: To induce trained immunity in primary human monocytes, a previously optimized and published method was used (Dominguez-Andres, J. et al. In vitro induction of trained immunity in adherent human monocytes. STAR Protoc 2, 100365, doi:10.1016/j.xpro.2021.100365 (2021); van Lier, D., Geven, C., Leijte, G. P. & Pickkers, P. Experimental human endotoxemia as a model of systemic inflammation. Biochimie 159, 99-106, doi:10.1016/j.biochi.2018.06.014 (2019)). Briefly: monocytes were adhered to a flat-bottom cell culture plate for 1 hour and washed with warm PBS to remove any non-adherent cells and cell debris. Then, they were stimulated (“trained”) for 24 hours with one of the stimuli detailed in Table 1, or medium only (“untrained” control).
as §1
Following the initial 24-hour stimulation, the cells were washed with warm PBS and warm cell culture medium was added. The monocytes were then allowed to rest and differentiate into macrophages for 5 days. On day 6, the induction of trained immunity was assessed. To this end, the cells were typically re-stimulated with LPS for an additional 24 hours to elicit cytokine production. The supernatants were collected and stored at −20° C. until further analysis, e.g. with ELISA for IL6 and TNF.
as §2

[4] = target: T3, CD8 receptor on mouse splenocytes (mouse, UniProt P01731 28-247; P10300 22-213); assay: flow cytometry, fluorescently labelled protein on mouse splenocytes; upper panel 'MFI APC (CD8+) of CD3+ T cells'
T3 construct: whole, on cells
T3 sequence (P01731 28-247, chain 1 of 2): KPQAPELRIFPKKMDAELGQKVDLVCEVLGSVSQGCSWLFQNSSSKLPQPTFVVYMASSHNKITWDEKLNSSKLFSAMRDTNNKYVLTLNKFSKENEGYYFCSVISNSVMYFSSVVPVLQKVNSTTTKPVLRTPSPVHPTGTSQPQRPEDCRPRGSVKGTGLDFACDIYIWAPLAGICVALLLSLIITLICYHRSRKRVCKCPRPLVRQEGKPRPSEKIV
T3 sequence (P10300 22-213, chain 2 of 2): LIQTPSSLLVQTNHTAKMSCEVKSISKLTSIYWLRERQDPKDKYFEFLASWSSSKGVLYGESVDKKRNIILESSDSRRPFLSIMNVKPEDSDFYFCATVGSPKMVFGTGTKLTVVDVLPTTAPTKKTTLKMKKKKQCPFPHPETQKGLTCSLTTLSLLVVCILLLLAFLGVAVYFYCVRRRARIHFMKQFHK
Description: The proteins were labeled by adding sulfo-cyanine5-maleimide (Lumiprobe) in dimethyl sulfoxide (DMSO) at a 5× molar excess. This mixture was incubated at room temperature for 2 hours. Excess dye was removed using a PD minitrap G-25 desalting column (Cytiva). […] Fluorescently labeled fusion proteins or aNPs and controls were added to the wells and incubated for 30 minutes at 4° C. (for proteins) or 37° C. (for aNPs) after which cells were harvested, washed, and stained for CD3 and CD4 and measured on Cytoflex (Beckman Coulter Inc.). Flow cytometry data was analyzed using FlowJo software (BD).

T1 sequence (P01731 28-247): as the sequence (P01731 28-247, chain 1 of 2) above
T1 sequence (P10300 22-213): as the sequence (P10300 22-213, chain 2 of 2) above

Molecule: apoA1-IL4: fusion protein of human apoA1 and human IL4 via flexible linker, 6his-tag and strep-tag (e.g. SEQ ID NO. 35)
SEAP production by HEK-IL4 reporter cells (HEK-Blue™ IL4/IL13 cells): prominently produced

binding to primary human monocytes (rim covering the cell surface) ([1]; Cy5-labeled, 2 h at 37° C.): confirmed
association with IL4Rα on the cell surface (co-clusters) ([1]; zoomed in section of the membrane): did not observe
Molecule: apoA1
Mean Fluorescence Intensity (MFI) of fluorescently labeled protein (CD8 receptor): did not show this dose dependent behavior

Molecule: NC(=O)c1cnc(NCCc2ccc(O)c(Cl)c2)nc1NCc1ccccc1 [AS1517499, reference compound]
effect of inhibitor on IL4's inhibition of acute inflammation (TNF, IL6) (primary human monocytes [2]): partly restored cytokine production in acute inflammatory responses
effect of inhibitor on trained immunity induction by IL4 (TNF, IL6) (primary human monocytes [3]): did not affect trained immunity induction by IL4

Molecule: CCC(=O)N1CCN(c2ccc(-n3c(=O)ccc4cnc5ccc(-c6cnc7ccccc7c6)cc5c43)cc2C(F)(F)F)CC1 [torin-1, Torin-1, reference compound]
effect of inhibitor on IL4's inhibition of acute inflammation (TNF, IL6) (primary human monocytes [2]): did not abrogate the effect of IL4 on acute inflammation
effect of inhibitor on trained immunity induction by IL4 (TNF, IL6) (primary human monocytes [3]): diminished the trained immunity responses; also recorded: significantly blunted

EC50 (read off the curve) [4]: ~5 nM
B1: VHHCD8-apoA1 fusion protein (VHH)
VHH: QVQLQESGGGLVQAGGSLRLSCAASGFTFDDYAIGWFRQAPGKEREGVSCINNSDGSGYVADSVKGRFTISSDNAKNTVYLQMNSLKPEDTAVYYCAAAGDGGCYYGLDYWGKGTQVTVSS
modifications: labelled with sulfo-cyanine5-maleimide (the linker between apoA1 and VHHCD8 comprises a cysteine)
notes: Fusion of an anti-CD8 VHH with apoA1, expressed in ClearColi; molecular weight 43.3 kDa

From US20240391978A1, “APOLIPOPROTEIN FUSION PROTEINS FOR CELL-SPECIFIC IMMUNE REGULATION” (BIO-TRIP B.V., priority 2021, published 2024)
